This is an account of results in patent publication US11111251B2, “Positive allosteric modulators of the muscarinic acetylcholine receptor M1” (Vanderbilt University, priority 2016, dated 2021).

Each structure is given as a SMILES string. Where two headings read alike, the source gives them in different places. Some results are limits rather than exact numbers.

The target in this experiment is T1, human mAChR M1 (Homo sapiens, UniProt P11229).
T1 sequence (P11229 1-460): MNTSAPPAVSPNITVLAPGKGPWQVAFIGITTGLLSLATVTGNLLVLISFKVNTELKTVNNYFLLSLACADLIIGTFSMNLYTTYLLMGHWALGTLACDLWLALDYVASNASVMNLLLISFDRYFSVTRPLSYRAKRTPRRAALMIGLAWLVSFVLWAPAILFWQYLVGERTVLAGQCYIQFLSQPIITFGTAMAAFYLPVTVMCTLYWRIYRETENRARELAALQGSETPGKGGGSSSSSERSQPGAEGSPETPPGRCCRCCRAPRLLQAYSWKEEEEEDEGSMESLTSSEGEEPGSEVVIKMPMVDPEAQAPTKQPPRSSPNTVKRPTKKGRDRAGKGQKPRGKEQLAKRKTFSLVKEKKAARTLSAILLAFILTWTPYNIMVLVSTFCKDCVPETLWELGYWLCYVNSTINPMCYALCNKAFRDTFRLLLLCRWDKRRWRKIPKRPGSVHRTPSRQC
Description: mAChR M1 cell-based functional assay: calcium mobilization, positive allosteric modulator mode (increase in EC20 acetylcholine response). The following applies: for Emax: read-out: Human M1 Emax (%). The procedure, abridged:
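PAM potency reflects the concentration-dependent increase in calcium response to an EC20 acetylcholine challenge, given 144 s into a 300 s read after compound addition at 4 s (EC80 follows at 230 s). Cells were hM1-expressing CHO-K1, loaded 50 min with Fluo-4 AM. Curves used 11 points at 1:3 dilutions and four-parameter logistic fitting.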

The mark [1] stands for this setting: Table 2, human M1, read-out: Human M1 EC50.

In the case of `Cn1ccc(-c2ccc(Cc3cc(C(=O)NC4CC(F)(F)C4)nc4ccsc34)cn2)n1` [Compound 420, N-(3,3-difluorocyclobutyl)-7-[[6-(1-methylpyrazol-3-yl)-3-pyridyl]methyl]thieno[3,2-b]pyridine-5-carboxamide], under setting [1], the EC50 worked out at 400 nM. The Emax (Table 2, human M1) amounted to 64.2%. `COC1CC(NC(=O)c2cc(Cc3ccc(-c4cn(C)nc4C)cc3)c3sccc3n2)C1` (stereo not drawn) [Compound 246, 7-[[4-(1,3-dimethylpyrazol-4-yl)phenyl]methyl]-N-(3-methoxycyclobutyl)thieno[3,2-b]pyridine-5-carboxamide]: the EC50 under setting [1] was > 10000 nM. For the setting “Table 2, human M1”, the Emax is 16%. The corresponding values for `Cc1ccc(Cc2cc(C(=O)NC3C4CC5C[C@H]3CC(O)(C5)C4)nc3ccsc23)cn1` (stereo partly drawn) [Compound 64, N-[(1S)-5-hydroxy-2-adamantyl]-7-[(6-methyl-3-pyridyl)methyl]thieno[3,2-b]pyridine-5-carboxamide] are 962 nM and 70.7%. With `Cn1ccc(-c2ccc(Cc3cc(C(=O)NC4CCOCC4)nc4ccsc34)cc2)n1` [Compound 254, 7-[[4-(1-methylpyrazol-3-yl)phenyl]methyl]-N-tetrahydropyran-4-yl-thieno[3,2-b]pyridine-5-carboxamide], under setting [1], the EC50 came out at 142 nM. Besides, the Emax (Table 2, human M1) turned out to be 71.6%. Consider `Cn1cc2c(-c3cc(F)c(Cc4cc(C(=O)N[C@H]5CCCC[C@@H]5O)nc5ccsc45)c(F)c3)cccc2n1` [Compound 41, 7-[[2,6-difluoro-4-(2-methylindazol-4-yl)phenyl]methyl]-N-[(1S,2S)-2-hydroxycyclohexyl]thieno[3,2-b]pyridine-5-carboxamide], for which the EC50 (Table 1, mAChR M1 cell-based functional assay, PAM mode, species not given, read-out: EC50) turned out to be 3640 nM.
